# Source: ChEMBL document CHEMBL1201861, “Genomics of Drug Sensitity in Cancer screening data, Wellcome Trust Sanger Institute”
# Experiments:
# SCLC-21H = assay: cells; type: functional, cell-based, Homo sapiens; conditions: Homo sapiens, SCLC-21H;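 also: growth inhibition of cultured human SCLC-21H cells, read out with a cell viability assay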
# Description: SANGER: Inhibition of human SCLC-21H cell growth in a cell viability assay.
# NCI-H2141 = assay: cells; type: functional, cell-based, Homo sapiens; conditions: Homo sapiens, NCI-H2141;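 also: growth inhibition of human NCI-H2141 cells, read out with a cell viability assay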
# Description: SANGER: Inhibition of human NCI-H2141 cell growth in a cell viability assay.
# SIG-M5 = assay: cells; type: functional, cell-based, Homo sapiens; conditions: Homo sapiens, SIG-M5;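 also: cell viability assay read-out, measuring how strongly growth of cultured human SIG-M5 cells is inhibited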
# Description: SANGER: Inhibition of human SIG-M5 cell growth in a cell viability assay.
# TE-15 = assay: cells; type: functional, cell-based, Homo sapiens; conditions: Homo sapiens, TE-15;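 also: cell viability readout of growth inhibition in TE-15 cells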
# Description: SANGER: Inhibition of human TE-15 cell growth in a cell viability assay.
# EVSA-T = assay: cells; type: functional, cell-based, Homo sapiens; conditions: Homo sapiens, EVSA-T;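 also: growth inhibition of EVSA-T cells, read out with a cell viability assay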
# Description: SANGER: Inhibition of human EVSA-T cell growth in a cell viability assay.
# SIMA = assay: cells; type: functional, cell-based, Homo sapiens; conditions: Homo sapiens, SIMA;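 also: growth inhibition of SIMA cells, measured with a cell viability readout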
# Description: SANGER: Inhibition of human SIMA cell growth in a cell viability assay.
# TUR = assay: cells; type: functional, cell-based, Homo sapiens; conditions: Homo sapiens, TUR;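 also: growth inhibition of human TUR cells, read out with a cell viability assay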
# Description: SANGER: Inhibition of human TUR cell growth in a cell viability assay.
# CHP-126 = assay: cells; type: functional, cell-based, Homo sapiens; conditions: Homo sapiens, CHP-126
# Description: SANGER: Inhibition of human CHP-126 cell growth in a cell viability assay.
# REH = assay: cells; type: functional, cell-based, Homo sapiens; conditions: Homo sapiens, REH;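 also: growth inhibition of REH cells determined with a cell viability read-out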
# Description: SANGER: Inhibition of human REH cell growth in a cell viability assay.
# NCI-H2171 = assay: cells; type: functional, cell-based, Homo sapiens; conditions: Homo sapiens, NCI-H2171;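 also: growth inhibition of human NCI-H2171 cells, read out by a cell viability assay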
# Description: SANGER: Inhibition of human NCI-H2171 cell growth in a cell viability assay.
# NCCIT = assay: SANGER: Inhibition of human NCCIT cell growth in a cell viability assay.; type: functional, cell-based; conditions: Homo sapiens, NCCIT
# L-540 = assay: cells; type: functional, cell-based, Homo sapiens; conditions: Homo sapiens, L-540;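 also: growth inhibition of the human L-540 cell line, read out with a viability assay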
# Description: SANGER: Inhibition of human L-540 cell growth in a cell viability assay.
# PF-382 = assay: cells; type: functional, cell-based, Homo sapiens; conditions: Homo sapiens, PF-382
# Description: SANGER: Inhibition of human PF-382 cell growth in a cell viability assay.
smiles,measurement,setting,value
C=CC(=O)N1CCCC(Nc2nc(Nc3ccc(N(C)C(=O)CC)cc3)nc3[nH]cnc23)C1 (stereo not given),IC50,SCLC-21H,> 10200 nM
same,IC50,NCI-H2141,> 10200 nM
same,IC50,SIG-M5,> 10200 nM
same,IC50,TE-15,1850 nM
same,IC50,EVSA-T,> 10200 nM
same,IC50,SIMA,> 10200 nM
same,IC50,TUR,> 10200 nM
same,IC50,CHP-126,> 10200 nM
same,IC50,REH,> 10200 nM
same,IC50,NCI-H2171,> 10200 nM
same,IC50,NCCIT,> 10200 nM
same,IC50,L-540,> 10200 nM
same,IC50,PF-382,> 10200 nM
COc1ccc(N(C(=O)Oc2c(C)cccc2C)c2ccnc(Nc3ccc(N4CCN(C)CC4)cc3)n2)c(OC)c1,IC50,SCLC-21H,> 5120 nM
same,IC50,NCI-H2141,> 5120 nM
same,IC50,SIG-M5,> 5120 nM
same,IC50,TE-15,243 nM
same,IC50,EVSA-T,> 5120 nM
same,IC50,SIMA,> 5120 nM
same,IC50,TUR,> 5120 nM
same,IC50,CHP-126,> 5120 nM
same,IC50,REH,> 5120 nM
same,IC50,NCI-H2171,> 5120 nM
same,IC50,NCCIT,> 5120 nM
same,IC50,L-540,> 5120 nM
same,IC50,PF-382,708 nM
Cc1cc(N2CCOCC2)cc2[nH]c(-c3c(NC[C@@H](O)c4cccc(Cl)c4)cc[nH]c3=O)nc12,IC50,SCLC-21H,> 5120 nM
same,IC50,NCI-H2141,> 5120 nM
same,IC50,SIG-M5,323 nM
same,IC50,TE-15,813 nM
same,IC50,EVSA-T,> 5120 nM
same,IC50,SIMA,> 5120 nM
same,IC50,TUR,> 5120 nM
same,IC50,CHP-126,> 5120 nM
same,IC50,REH,> 5120 nM
same,IC50,NCI-H2171,> 5120 nM
same,IC50,NCCIT,3830 nM
same,IC50,L-540,> 5120 nM
same,IC50,PF-382,> 5120 nM
NC(=O)c1cccc(-c2cc(Nc3ccc(OC(F)(F)F)cc3)ncn2)c1,IC50,SCLC-21H,> 1280 nM
same,IC50,NCI-H2141,> 1280 nM
same,IC50,SIG-M5,> 1280 nM
same,IC50,TE-15,> 1280 nM
same,IC50,EVSA-T,> 1280 nM
same,IC50,SIMA,> 1280 nM
same,IC50,TUR,> 1280 nM
same,IC50,CHP-126,> 1280 nM
same,IC50,REH,> 1280 nM
same,IC50,NCI-H2171,> 1280 nM
same,IC50,NCCIT,> 1280 nM
same,IC50,L-540,> 1280 nM
same,IC50,PF-382,> 1280 nM
C[C@@H](Oc1cc(-c2cnn(C3CCNCC3)c2)cnc1N)c1c(Cl)ccc(F)c1Cl [CRIZOTINIB],IC50,SCLC-21H,> 2000 nM
same,IC50,NCI-H2141,> 2000 nM
same,IC50,SIG-M5,> 2000 nM
same,IC50,TE-15,> 2000 nM
same,IC50,EVSA-T,> 2000 nM
same,IC50,SIMA,> 2000 nM
same,IC50,TUR,> 2000 nM
same,IC50,CHP-126,> 2000 nM
same,IC50,REH,> 2000 nM
same,IC50,NCI-H2171,> 2000 nM
same,IC50,NCCIT,> 2000 nM
same,IC50,L-540,> 2000 nM
same,IC50,PF-382,> 2000 nM
